Key:
[1] = test system: acetic acid writhing response; experiment: Mouse (Acetic Acid) Writhing Test; type: in vivo, female, ICR mice; settings: for Activity % Inhibition / Ave. Number of Writhes (20 min.): p.o., one hour before acetic acid; for Ave. Number of Writhes (20 min.): controls 55.0
Procedure: In this test, groups of 5 female, ICR mice (Schmidt) weighing 19-25 g. were orally (p.o.) gavaged with compound (V) one hour prior to the intraperitoneal injection of 0.4 ml. of acetic acid 0.5% (v/v). Five minutes after the acid injection, the number of writhing responses over a 20 minute period were counted. One group received an oral dose of vehicle only to serve as controls. Activity was determined as the percent difference (inhibition) between the average number of writhes for the test groups as compared to the controls. An ED50 value representing the dose producing a 50% inhibition of the writhing response was calculated by a linear regression program.

[2] = test system: response time to radiated heat focused on the tail (rat tail flick); experiment: Rat Tail Flick Test; type: in vivo, male, Sprague-Dawley rats; settings: for average response time, 1 Hr. / Activity - Increase in Response Time (2 Hrs.) / average response time, 2 Hrs. / average response time, 3 Hrs.: p.o.
Procedure: In this test, groups of 10 male, Sprague-Dawley rats, weighing 142-170 g. were orally (p.o.) gavaged with compound (V) after the average normal response time to radiated heat focused on the tail had been established by two trials. Response times were recorded hourly for 3 hours after the administration of the compound. The activity was determined as the percent increase in response time over the average normal response for the response for the respective group. An ED50 value representing the dose producing a 50% increase in average response time was calculated by a linear regression program.

[3] = test system: methamphetamine-induced hyperactivity in rats; experiment: Rat Desoxyn Antagonism Test; type: in vivo; settings: methamphetamine 1 mg./kg., i.p.
Procedure: In this test, the antagonism or potentiation of methamphetamine-induced hyperactivity in rats was evaluated in motor activity chambers equipped with photocells (Lehigh Valley, Model #1497). Groups of rats were premedicated with Compound (V) and then administered methamphetamine (1 mg./kg., i.p.). One rat was placed in each chamber and three rats were used per test dose. Effect was recorded as percent change in counts from the photocells compared to methamphetamine-treated controls.

**Q.** `CC(CCCc1ccc(F)cc1)c1cc(O)c2c(c1)OC(C)(C)C1=C2CN(CC(=O)NC(N)=O)CC1` (centres unmarked) [Compound V, {{8-[5-(4-Fluorophenyl)-2-pentyl]-10-hydroxy-5,5-dimethyl-1,2,3,4-tetrahydro-5H-[1]benzopyrano[4,3-c]pyridin-2-yl}acetyl}urea] was tested. Which “Activity % Inhibition” value ([1]; 0.5 mg./kg.) did it give?
**A.** 48.4%

**Q.** And the “Ave. Number of Writhes (20 min.)” value ([1]; 0.5 mg./kg.)?
**A.** 28.4

**Q.** And the “Activity % Inhibition” value ([1]; 1.0 mg./kg.)?
**A.** 50.2%

**Q.** And the “Ave. Number of Writhes (20 min.)” value ([1]; 1.0 mg./kg.)?
**A.** 27.4

**Q.** What about the “Activity % Inhibition” value ([1]; 2.0 mg./kg.) of the same molecule?
**A.** 72.4%

**Q.** And the “Ave. Number of Writhes (20 min.)” value ([1]; 2.0 mg./kg.)?
**A.** 15.2

**Q.** And the “Activity % Inhibition” value ([1]; 4.0 mg./kg.)?
**A.** 89.1%

**Q.** What about the “Ave. Number of Writhes (20 min.)” value ([1]; 4.0 mg./kg.) of the same molecule?
**A.** 6.0

**Q.** What about the ED50 ([1]; Mus musculus, po, dose producing 50% inhibition of writhing response, linear regression, (0.4, 1.0) printed after value) of the same molecule?
**A.** 0.7 mg/kg

**Q.** What about the “average response time, 1 Hr.” value ([2]; 1.0 mg./kg., Normal 8.03) of the same molecule?
**A.** 9.03 s

**Q.** And the “Activity - Increase in Response Time (2 Hrs.)” value (shortened to “Activity - Increase”) ([2]; 1.0 mg./kg., 2 hrs)?
**A.** 30.0%

**Q.** And the “average response time, 2 Hrs.” value ([2]; 1.0 mg./kg., 2 hrs, Normal 8.03)?
**A.** 10.44 s

**Q.** What about the “average response time, 3 Hrs.” value ([2]; 1.0 mg./kg., Normal 8.03) of the same molecule?
**A.** 11.22 s

**Q.** And the “average response time, 1 Hr.” value ([2]; 2.0 mg./kg., Normal 6.80)?
**A.** 8.92 s

**Q.** And the “Activity - Increase” value ([2]; 2.0 mg./kg., 2 hrs)?
**A.** 56.0%

**Q.** And the “average response time, 2 Hrs.” value ([2]; 2.0 mg./kg., 2 hrs, Normal 6.80)?
**A.** 10.61 s

**Q.** What about the “average response time, 3 Hrs.” value ([2]; 2.0 mg./kg., Normal 6.80) of the same molecule?
**A.** 10.99 s

**Q.** And the “average response time, 1 Hr.” value ([2]; 4.0 mg./kg., Normal 8.30)?
**A.** 11.13 s

**Q.** And the “Activity - Increase” value ([2]; 4.0 mg./kg., 2 hrs)?
**A.** 95.2%

**Q.** And the “average response time, 2 Hrs.” value ([2]; 4.0 mg./kg., 2 hrs, Normal 8.30)?
**A.** 16.20 s

**Q.** What about the “average response time, 3 Hrs.” value ([2]; 4.0 mg./kg., Normal 8.30, average includes maximum values (30 seconds cut-off time)) of the same molecule?
**A.** 16.98 s

**Q.** What about the “average response time, 1 Hr.” value ([2]; 8.0 mg./kg., Normal 7.97, average includes maximum values (30 seconds cut-off time)) of the same molecule?
**A.** 13.63 s

**Q.** And the “Activity - Increase” value ([2]; 8.0 mg./kg., 2 hrs)?
**A.** 98.6%

**Q.** What about the “average response time, 2 Hrs.” value ([2]; 8.0 mg./kg., 2 hrs, Normal 7.97, average includes maximum values (30 seconds cut-off time)) of the same molecule?
**A.** 15.83 s

**Q.** What about the “average response time, 3 Hrs.” value ([2]; 8.0 mg./kg., Normal 7.97) of the same molecule?
**A.** 14.32 s

**Q.** And the ED50 ([2]; Rattus norvegicus, po, 2 hrs, dose producing 50% increase in average response time, linear regression, (0.02, 3.19) printed after value)?
**A.** 1.6 mg/kg

**Q.** And the “% Decreased Activity Over Control” value ([3]; oral dose 5 mg./kg.)?
**A.** 75%

**Q.** What about the “% Decreased Activity Over Control” value ([3]; oral dose 20 mg./kg.) of the same molecule?
**A.** 93%

**Q.** And the “% Decreased Activity Over Control” value ([3]; oral dose 80 mg./kg.)?
**A.** 84%
